Test results reported in patent publication US5034512A, “Branched backbone renin inhibitors” (Warner-Lambert Company, priority 1988, dated 1991).
pIC50: −log10 of the molar value.

Target: T1, renin (Homo sapiens, UniProt P00797)
T1 sequence (P00797 67-406): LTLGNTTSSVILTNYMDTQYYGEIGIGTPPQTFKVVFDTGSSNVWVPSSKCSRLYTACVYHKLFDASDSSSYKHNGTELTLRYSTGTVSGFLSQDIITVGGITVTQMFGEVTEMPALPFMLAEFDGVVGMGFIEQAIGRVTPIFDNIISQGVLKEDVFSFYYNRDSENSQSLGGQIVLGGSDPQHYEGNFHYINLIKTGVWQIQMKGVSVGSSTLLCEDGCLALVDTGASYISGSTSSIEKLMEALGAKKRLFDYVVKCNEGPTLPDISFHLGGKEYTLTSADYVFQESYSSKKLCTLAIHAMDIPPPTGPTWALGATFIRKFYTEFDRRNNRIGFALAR
Assay: in vitro renin inhibitory activity, radioimmunoassay for angiotensin I
Format: biochemical
Settings: renin incubated two hours at 37° with angiotensinogen; for pIC50: read-out: IC50 (molar concentration of test compound causing a 50% inhibition of the renin activity)
Method: The effectiveness of the aforementioned compound is determined by a test for in vitro renin inhibitory activity. This activity is determined by a standard radioimmunoassay for angiotensin I. In this assay the enzyme, renin, incubated for two hours at 37° in the presence of a substrate, angiotensinogen, generates the product, angiotensin I. Test compounds are added to the incubation mixture. Relative activity is reported as the IC50, which is the molar concentration of test compound causing a 50% inhibition of the renin activity. Relative activity is also reported as % inhibition at 10^-6 M,

| SMILES | pIC50 | inhibition at 1 µM (10^-6 M test compound) |
| --- | --- | --- |
| CC[C@H](C)CNC(=O)C[C@H](O)[C@H](CC(C)C)NC(=O)[C@H](CCCCNC(=O)CN)NC(=O)C(Cc1cccc2ccccc12)Cc1cccc2ccccc12 [Example 9] | 6.15 | – |
| CNC(=O)CCNC(=O)C[C@H](NC(=O)C(Cc1cccc2ccccc12)Cc1cccc2ccccc12)C(=O)N[C@@H](CC1CCCCC1)[C@@H](O)CC(=O)N[C@@H](CC(C)C)C(=O)NCc1ccccc1 [Example 6] | – | 47% |
| CC[C@H](C)CNC(=O)C[C@H](O)[C@H](CC(C)C)NC(=O)[C@H](CCCCNC(=O)[C@@H]1CS(=O)(=O)CN1C(C)=O)NC(=O)C(Cc1cccc2ccccc12)Cc1cccc2ccccc12 [Example 14] | 6.33 | – |
| CC[C@H](C)CNC(=O)C[C@H](O)[C@H](CC(C)C)NC(=O)[C@H](CCC(=O)NCC(=O)NC)NC(=O)C(Cc1cccc2ccccc12)Cc1cccc2ccccc12 [Example 2] | 4.82 | – |
| CC[C@H](C)CNC(=O)C[C@H](O)[C@H](CC(C)C)NC(=O)[C@H](CCCCNC(=O)CNC(=S)NC)NC(=O)C(Cc1cccc2ccccc12)Cc1cccc2ccccc12 [Example 10] | 7.10 | – |
| CC[C@H](C)CNC(=O)C[C@H](O)[C@H](CC(C)C)NC(=O)[C@H](CCCCNC(=O)[C@@H]1CSCN1C(C)=O)NC(=O)C(Cc1cccc2ccccc12)Cc1cccc2ccccc12 [Example 13] | 5.96 | – |
| CC[C@H](C)CNC(=O)C[C@H](O)[C@H](CC(C)C)NC(=O)[C@H](CCCCNC(=O)CNC(=O)OCc1ccccc1)NC(=O)C(Cc1cccc2ccccc12)Cc1cccc2ccccc12 [Example 8] | 7.08 | – |
| COC(=O)[C@H](CCS(C)(=O)=O)NC(=O)C[C@H](NC(=O)C(Cc1cccc2ccccc12)Cc1cccc2ccccc12)C(=O)N[C@@H](CC1CCCCC1)[C@@H](O)CC(=O)N[C@@H](CC(C)C)C(=O)NCc1ccccc1 [Example 3] | 5.46 | – |
| CNC(=S)CNC(=O)C[C@H](NC(=O)C(Cc1cccc2ccccc12)Cc1cccc2ccccc12)C(=O)N[C@@H](CC1CCCCC1)[C@@H](O)CC(=O)N[C@@H](CC(C)C)C(=O)NCc1ccccc1 [Example 5] | 6.62 | – |
| CC[C@H](C)CNC(=O)C[C@H](O)[C@H](CC(C)C)NC(=O)[C@H](CCC(=O)NCC(=S)NC)NC(=O)C(Cc1cccc2ccccc12)Cc1cccc2ccccc12 [Example 1] | 5.05 | – |

Results, then the molecule that gave them:

| pIC50 | inhibition at 1 µM (10^-6 M test compound) | SMILES |
| --- | --- | --- |
| 8.10 | – | CC[C@H](C)CNC(=O)C[C@H](O)[C@H](CC(C)C)NC(=O)[C@H](CCCCNC(=O)CNC(N)=N[N+](=O)[O-])NC(=O)C(Cc1cccc2ccccc12)Cc1cccc2ccccc12 [Example 19] |
| 7.37 | – | CC[C@H](C)CNC(=O)C[C@H](O)[C@H](CC(C)C)NC(=O)[C@H](CCCCNC(=O)[C@@H]1CCC(=O)N1)NC(=O)C(Cc1cccc2ccccc12)Cc1cccc2ccccc12 [Example 15] |
| 7.13 | – | CC[C@H](C)CNC(=O)C[C@H](O)[C@H](CC(C)C)NC(=O)[C@H](CCCCNC(=O)CNC(=O)C(C)C)NC(=O)C(Cc1cccc2ccccc12)Cc1cccc2ccccc12 [Example 17] |
| 7.57 | – | CC[C@H](C)CNC(=O)C[C@H](O)[C@H](CC1CCCCC1)NC(=O)[C@H](CCCCNC(=O)CNC(C)=O)NC(=O)C(Cc1cccc2ccccc12)Cc1cccc2ccccc12 [Example 12] |
| 7.60 | – | CC[C@H](C)CNC(=O)C[C@H](O)[C@H](CC(C)C)NC(=O)[C@H](CCCCNC(=O)CCNC(C)=O)NC(=O)C(Cc1cccc2ccccc12)Cc1cccc2ccccc12 [Example 16] |
| 7.21 | – | CC[C@H](C)CNC(=O)C[C@H](O)[C@H](CC(C)C)NC(=O)[C@H](CCCCNC(=O)CNC(=O)C(F)F)NC(=O)C(Cc1cccc2ccccc12)Cc1cccc2ccccc12 [Example 18] |
| 7.52 | – | CC[C@H](C)CNC(=O)C[C@H](O)[C@H](CC(C)C)NC(=O)[C@H](CCCCNC(=O)CNC(=NC#N)NC)NC(=O)C(Cc1cccc2ccccc12)Cc1cccc2ccccc12 [Example 20] |
